Here are results for 2 compounds from patent publication US5948792A, “Fluorine-containing 1,4-disubstituted piperidine derivatives” (Banyu Pharmaceutical Co., Ltd., priority 1996, dated 1999).

One experiment concerns the target T1, M2 receptor (Rattus norvegicus, UniProt P10980).
T1 construct: the right atrium was isolated; from tissue; host or cells: isolated right atrium of male SD strain rat
T1 sequence (P10980 1-466): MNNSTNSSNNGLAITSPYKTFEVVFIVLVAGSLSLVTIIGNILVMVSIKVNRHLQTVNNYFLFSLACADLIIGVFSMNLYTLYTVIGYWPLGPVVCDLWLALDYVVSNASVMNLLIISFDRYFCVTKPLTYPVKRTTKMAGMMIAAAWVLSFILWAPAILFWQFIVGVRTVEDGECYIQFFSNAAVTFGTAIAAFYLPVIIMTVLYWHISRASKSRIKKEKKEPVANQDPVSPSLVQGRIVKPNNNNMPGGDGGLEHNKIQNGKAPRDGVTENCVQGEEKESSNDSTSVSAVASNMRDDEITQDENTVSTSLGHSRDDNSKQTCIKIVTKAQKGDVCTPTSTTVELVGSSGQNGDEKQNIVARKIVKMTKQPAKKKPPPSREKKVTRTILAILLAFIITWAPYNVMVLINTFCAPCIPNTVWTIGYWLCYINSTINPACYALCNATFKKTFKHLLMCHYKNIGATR
Put plainly: Antagonism to M2 receptor in an isolated rat right atrium (in vitro). The conditions noted are these: carbachol-induced decrease in heart rate. In kind it is cell-based. As to the method: (§1) Tests for Antagonism to Muscarinic Receptors (in vitro)
1) Tests for Antagonism to M2 receptor in an Isolated Rat Right Atrium
These tests were performed according to a conventional method. A male SD strain rat (weighing 300-500 g) was killed by exsanguination, and the right atrium was isolated. This preparation was isometrically suspended in organ bath filled with 20 ml of Krebs-Henseleit solution (gassed with 95% O2 -5% CO2 and kept at 32° C.) with an initial tension of 0.5 g. The heart rate was recorded with a heart rate counter. After the preparation was equilibrated for 30 minutes, carbachol (10^-9 to 10^-6 M) was cumulatively administered in three-fold increasing doses. Thus, a decrease in heart rate was measured to obtain a dose-response curve for the control experiment. After the preparation was washed with fresh solution to restore the heart rate, a test compound was administered thereto. Ten minutes later, carbachol was cumulatively administered again. Responses to carbachol were expressed as percentages based on the heart rate before administration of carbachol as 100%. The antagonistic potency (KB value) of the test compound was determined from the degree of shift of the dose-response curve obtained by treatment with individual test compound of the present invention.

Another experiment deals with T2, airway M3 receptor (Rattus norvegicus, UniProt P08483).
T2 construct: the trachea was isolated; from tissue; host or cells: isolated trachea of male SD strain rat
Briefly: Antagonism to the airway M3 receptor in an isolated rat trachea (in vitro). In kind it is cell-based. The conditions noted are these: for Kb: isolated rat trachea, carbachol-induced contraction. As for the experimental part: as §1
2) Tests for Antagonism to the Airway M3 Receptor in an Isolated Rat Trachea
These tests were performed according to a conventional method. A male SD strain rat (weighing 300-500 g) was killed by exsanguination, and the trachea was isolated. Annular segments (2 mm wide) were cut out from the trachea and cut transversely at the anterior cartilage part to make open ring preparation. A preparation was suspended in a Magnus tube filled with 5 ml of Krebs-Henseleit solution (gassed with 95% O2 -5% CO2 and kept at 32° C.) with an initial tension of 1.0 g and a resting tension of 0.6 g. The tension of the preparation was recorded isometrically. After being equilibrated for an hour, the preparation was made to contract twice by treatment with 10^-4 M carbachol, and the second contraction induced by carbachol was used as the reference contraction. After the preparation was washed with fresh solution to be restored to the base line, a test compound was administered thereto (or no treatment was given). Ten minutes later, carbachol (10^-8 to 10^-3 M) was cumulatively administered in three-fold increasing doses to obtain a dose-response curve. The dose-response curve was plotted by expressing responses as percentages based on the reference contraction of the preparation as 100%. The antagonistic potency (K^B value) of the test compound was determined from the degree of shift of the dose-response curve obtained by treatment with the test compound.

The target of experiment [1] is T3, Muscarinic M3 Receptor (Rattus norvegicus, UniProt P08483).
T3 construct: male rats of the Sprague-Dawley strain; from tissue; host or cells: airways of living male Sprague-Dawley rats (in vivo)
Put plainly: Bronchodilation in rats (i.v.), inhibition of acetylcholine-induced increase in airway resistance. It is filed as in vivo. The conditions noted are these: iv, 5 min, acetylcholine 50 μg/kg i.v. 5 minutes after test compound, read-out: Inhibition of Airway Contraction ED50 iv. As for the experimental part: (§2) Tests for Antagonism Against Muscarinic M3 Receptor (in vivo)
1-A) Tests for Bronchodilation in Rats (i.v.).
Eight- to eleven-weeks-old male rats of the Sprague-Dawley strain, weighing 380-420 g, were anesthetized with urethane (750 mg/kg. i.p.) and α-chloralose (37.5 mg/kg, i.p.). The bronchus of each rat was intubated, and the right jugular vein was cannulated for drug administration. […] To evoke an increase in airway resistance, acetylcholine (50 μg/kg, i.v.) was administered to the animals. The acetylcholine-induced airway resistance increase was measured 5 minutes before and 5 minutes after administration of test compound, and the ratio of the airway resistance of the latter to the former was calculated. In controls, isotonic sodium chloride solution was used in place of the test compounds and otherwise identical procedures were repeated, the calculated ratio being set to be 100%.

Experiment [2] addresses T3, Muscarinic M3 Receptor. Put plainly: Bronchodilation in rats (p.o.), inhibition of acetylcholine-induced increase in airway resistance. It is filed as in vivo. The conditions noted are these: po, 1 h, acetylcholine 50 μg/kg i.v. 60 minutes after test compound, read-out: Inhibition of Airway Contraction ED50 po. As to the method:
as §2
1-B) Tests for Bronchodilation in Rats (p.o.)
Eight- to eleven-weeks-old male rats of Sprague-Dawley strain weighing 380-420 g were orally administered with a test compound. The rats were treated in the identical manner as in the i.v. test, starting 30 minutes after the administration, and their airway resistance values were measured. The acetylcholine-(50 μg/kg, i.v.) induced airway resistance increase were measured 60 minutes after the administration of test compounds. In controls, isotonic sodium chloride solution was used in place of the test compounds and otherwise identical procedures were repeated, the ratio between the two airway resistance values whereby being set to be 100%.

For experiment [3], the system named is Muscarinic M3 Receptor. Put plainly: Bronchodilation in dogs (p.o.), methacholine provocation test. It is filed as in vivo, dog. The conditions noted are these: beagle dogs, 1 mg/kg p.o., 4 hours after administration. As for the experimental part: as §2
2) Tests for Bronchodilation in Dogs (p.o.)
Twelve- to twenty-four-months-old male beagle dogs (weighing 10-15 kg) were anesthetized with pentobarbital (30 mg/kg, i.v.) and intubated in their bronchus. Their airway sensitivity to inhaled methacholine were measured at least twice at two-weeks interval, and the dogs showing a reproducible methacholine reaction threshold values^1) ware selected. To those dogs whose methacholine reaction threshold value had been confirmed, the test compounds were orally administered (1 mg/kg). Four hours after the administration, the methacholine provocation test was conducted, and then the methacholine reaction threshold value^2) after administration of the test compound was obtained.
The bronchodilator activity of the test compound was determined following equation: [formula]
The methacholine provocation test was conducted using Astograph TCK-6100H Model (Chest). Methacholine chloride was used as bronchoconstritor, which was diluted with isotonic sodium chloride solution in 10-grade concentration levels starting from 40,000 μg/ml, as 20,000, 10,000, 5,000, 2,500, 1,250, 625, 312.5, 156 and 78 μg/ml. These methacholine aerosols were inhaled to the test animal each for 1 min, starting from the lowest concentration level, and respiration resistance was continuously recorded. The concentration level at which the respiration resistance reached twice the initial value was recorded as the methacholine threshold value.

Where only a bound is given, the exact number is not on record here.

T2 sequence (P08483 whole entry): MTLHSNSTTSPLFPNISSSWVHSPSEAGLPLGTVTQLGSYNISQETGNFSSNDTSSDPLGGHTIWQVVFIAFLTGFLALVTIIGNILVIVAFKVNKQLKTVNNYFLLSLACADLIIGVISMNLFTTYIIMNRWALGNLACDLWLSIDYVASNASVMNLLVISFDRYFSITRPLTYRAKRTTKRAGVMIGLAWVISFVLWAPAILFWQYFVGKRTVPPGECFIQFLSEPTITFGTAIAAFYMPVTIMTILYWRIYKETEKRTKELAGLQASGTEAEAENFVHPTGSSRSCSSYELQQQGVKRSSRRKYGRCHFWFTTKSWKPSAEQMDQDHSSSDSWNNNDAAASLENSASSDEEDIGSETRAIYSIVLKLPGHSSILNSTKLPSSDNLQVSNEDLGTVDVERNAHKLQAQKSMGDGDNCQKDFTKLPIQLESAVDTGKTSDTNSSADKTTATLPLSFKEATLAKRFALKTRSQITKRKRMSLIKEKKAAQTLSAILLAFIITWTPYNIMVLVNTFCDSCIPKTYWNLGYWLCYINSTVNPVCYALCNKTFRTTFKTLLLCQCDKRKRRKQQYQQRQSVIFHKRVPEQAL
T3 sequence (P08483 whole entry): as above

What is called Kb is the affinity of an antagonist, worked out from how it opposes an agonist. A low value points to higher antagonist affinity. Broadly, the ED50 is the dose at which the effect has come halfway, by size or by number of responders. For the compound `O=C(NC1CCN(Cc2ccsc2)CC1)[C@](O)(c1ccccc1)[C@@H]1CCC(F)(F)C1` [Example 11, (2R)-N-[1-(3-thienylmethyl)piperidin-4-yl]-2-[(1R)-3,3-difluorocyclopentyl]-2-hydroxy-2-phenylacetamide], the antagonist equilibrium constant (Kb) was determined as 610 nM on M2 receptor and 0.95 nM on airway M3 receptor. Besides, the ED50 on Muscarinic M3 Receptor [1] was found to be 0.032 mg/kg; on Muscarinic M3 Receptor [2], 0.22 mg/kg. For the same compound, in the experiment with Muscarinic M3 Receptor [3], the “Methacholine Inhalation-inducing Test shift value (after 4 hrs.)” value came out at 21.
`Cl.Cl.Nc1cccc(CN2CCC(NC(=O)[C@](O)(c3ccccc3)[C@@H]3CCC(F)(F)C3)CC2)n1` [Example 20, (2R)-N-[1-(6-aminopyridin-2-ylmethyl)piperidin-4-yl]-2-[(1R)-3,3-difluorocyclopentyl]-2-hydroxy-2-phenylacetamide dihydrochloride]: the Kb was 2100 nM at M2 receptor and 1.6 nM on airway M3 receptor. Further, the “M2/M3 (ratio of KB)” value at airway M3 receptor (selectivity ratio of KB values, right atrium M2 / trachea M3) is 630. The figures for the median effective dose (ED50) at Muscarinic M3 Receptor [1] and at Muscarinic M3 Receptor [2] were 0.04 mg/kg and 0.37 mg/kg, respectively. Further, the “Methacholine Inhalation-inducing Test shift value (after 4 hrs.)” value in the experiment with Muscarinic M3 Receptor [3] is listed as > 69.
